This note sets out measurements from patent publication US8680111B2 (Pfizer Inc., priority 2012, dated 2014).

Experiment [1] has as its target T1, human recombinant wild-type ALK kinase domain (amino acids 1093-1411) (Homo sapiens, UniProt Q9UM73).
T1 construct: ALK kinase domain (amino acids 1093-1411); made in house
In words: Wild-type ALK enzyme assay (microfluidic mobility shift). It is filed as biochemical. To be noted: ATP 60 μM, competitive inhibition fit, read-out: WT ALK enzyme assay (Ki).
Procedure: The reactions were incubated for 1 h at room temperature, stopped by the addition of 0.1 M EDTA, pH 8, and the extent of reactions (˜15-20% conversion with no inhibitor) was determined after electrophoretic separation of the fluorescently labeled peptide substrate and phosphorylated product on an LabChip EZ Reader II (Caliper Life Sciences, Hopkinton, Mass.).

The target in experiment [2] is T2, WT EML4-ALK (NIH-3T3 EML4-ALK wt v1 cells) (Homo sapiens, UniProt Q9UM73).
T2 construct: expressed in transfected cells; the other entry of the earlier key: EML4 (Q9HC35, Echinoderm microtubule-associated protein-like 4)
Kind of experiment: Cellular phospho-ALK (Tyr1604) ELISA assay for WT EML4-ALK. Type of experiment: cell-based. The following applies: 1 hour, read-out: ELISA assay for WT EML4-ALK (IC50).

The target of experiment [3] is T3, L1196M EML4-ALK (NIH-3T3 EML4-ALK v1 L1196M cells) (Homo sapiens, UniProt Q9UM73, L1196M).
T3 construct: expressed in transfected cells; the other entry of the earlier key: EML4 (Q9HC35, Echinoderm microtubule-associated protein-like 4)
Kind of experiment: Cellular phospho-ALK (Tyr1604) ELISA assay for L1196M EML4-ALK. It is filed as cell-based. The following applies: NIH-3T3 EML4-ALK v1 L1196M cells, 1 hour, phospho-ALK (Tyr1604); read-out: ELISA assay for L1196M EML4-ALK (IC50). In general terms: An ELISA detects its analyte on a solid surface through an enzyme-linked reagent.

Experiment [4] deals with T4, human recombinant L1196M ALK kinase domain (amino acids 1093-1411) (Homo sapiens, UniProt Q9UM73, L1196M).
T4 construct: ALK kinase domain (amino acids 1093-1411); made in house
Kind of experiment: L1196M mutant ALK enzyme assay (microfluidic mobility shift). To be noted: ATP 60 μM, 0.5 nM enzyme, competitive inhibition fit; read-out: L1196M ALK enzyme assay (Ki). Type of experiment: biochemical.

On to `CCN1Cc2c(c(C)nn2C)-c2cnc(N)c(c2)OC(C)c2cc(F)ccc2C1=O` (single isomer, unassigned) [Example 9, 7-amino-16-ethyl-12-fluoro-1,3,10-trimethyl-16,17-dihydro-1H-8,4-(metheno)pyrazolo[4,3-h][2,5,11]benzoxadiazacyclotetradecin-15(10H)-one], for which the Ki in experiment [1] is 0.2 nM; in experiment [4], 1.06 nM. For the same compound, the values for the IC50 in experiment [2] and in experiment [3] were 0.35 nM and 9.29 nM, respectively.

Take `C[C@H]1Oc2cc(cnc2N)-c2c(C#N)nn(C)c2CN(C)C(=O)c2ccc(F)cc21` [Example 114, (10R)-7-amino-12-fluoro-1,10,16-trimethyl-15-oxo-10,15,16,17-tetrahydro-1H-8,4-(metheno)pyrazolo[4,3-h][2,5,11]benzoxadiazacyclotetradecine-3-carbonitrile]: the Ki came to 0.271 nM in experiment [1] and 1.36 nM in experiment [4]. Moreover, the concentration for half-maximal inhibition (IC50) worked out at 3.29 nM in experiment [2] and 78.2 nM in experiment [3].

For the compound `CC1Oc2cc(F)ccc2C(=O)N(C)Cc2nn(C)c(C#N)c2-c2cnc(N)c1c2` (single isomer, unassigned) [Example 76, 7-amino-12-fluoro-2,9,16-trimethyl-15-oxo-2,15,16,17-tetrahydro-9H-8,4-(metheno)pyrazolo[4,3-h][1,5,11]benzoxadiazacyclotetradecine-3-carbonitrile], the inhibition constant (Ki) stood at 3.1 nM in experiment [1] and 1.9 nM in experiment [4]. Also, the 50% inhibitory concentration (IC50) was 95.6 nM in experiment [2] and 109 nM in experiment [3].

With `CC1Oc2nc(cnc2N)-c2c(nn(C)c2C#N)CN(C)C(=O)c2ccc(F)cc21` (single isomer, unassigned) [Example 32, 7-amino-12-fluoro-2,10,16-trimethyl-15-oxo-10,15,16,17-tetrahydro-2H-8,4-(azeno)pyrazolo[4,3-h][2,5,11]benzoxadiazacyclotetradecine-3-carbonitrile], the inhibition constant (Ki) in experiment [1] is under 0.2 nM; in experiment [4] it was under 0.1 nM. For the same compound, the half-maximal inhibitory concentration (IC50) in experiment [2] worked out at 0.841 nM; in experiment [3] it was 5.36 nM.

`COc1cnc2cc1-c1cnc(N)c(c1)O[C@H](C)c1cc(F)ccc1C(=O)N(C)CC2` [Example 116, (1R)-4-amino-19-fluoro-9-methoxy-1,15-dimethyl-14,15-dihydro-1H-3,7:8,12-di(metheno)-2,5,11,15-benzoxatriazacyclooctadecin-16(13H)-one]: the values for the Ki in experiment [1] and in experiment [4] were over 1500 nM and over 3000 nM, respectively. Moreover, the half-inhibitory concentration (IC50) in experiment [2] and in experiment [3] was over 10000 nM throughout.

For `CCn1nnc2c1-c1cnc(N)c(c1)O[C@H](C)c1cc(F)ccc1C(=O)N(C)C2` [Example 133, (10R)-7-amino-3-ethyl-12-fluoro-10,16-dimethyl-16,17-dihydro-3H-4,8-(metheno)[1,2,3]triazolo[4,5-h][2,5,11]benzoxadiazacyclotetradecin-15(10H)-one], the Ki stood at 3.06 nM in experiment [1] and 32.8 nM in experiment [4]. Moreover, the 50% inhibitory concentration (IC50) in experiment [2] is 95.8 nM; in experiment [3] it was 997 nM.

Consider `C[C@H]1Oc2nc(cnc2N)-c2c(C#N)nn(C)c2CN(C)C(=O)c2ccc(F)cc21` [Example 115, (10R)-7-amino-12-fluoro-1,10,16-trimethyl-15-oxo-10,15,16,17-tetrahydro-1H-8,4-(azeno)pyrazolo[4,3-h][2,5,11]benzoxadiazacyclotetradecine-3-carbonitrile], for which the inhibition constant (Ki) is under 0.08 nM in experiment [1] and 0.09 nM in experiment [4]. Besides, the IC50 in experiment [2] is 0.96 nM; in experiment [3], 8.18 nM.

On to `CC1Oc2cc(F)ccc2C(=O)N(C)Cc2nn(C)c(C#N)c2-c2cnc(N)c1c2` (single isomer, unassigned) [Example 77, 7-amino-12-fluoro-2,9,16-trimethyl-15-oxo-2,15,16,17-tetrahydro-9H-8,4-(metheno)pyrazolo[4,3-h][1,5,11]benzoxadiazacyclotetradecine-3-carbonitrile], for which the results for the inhibitory constant (Ki) in experiment [1] and in experiment [4] were 75 nM and 45.8 nM, respectively. Further, the half-maximal inhibitory concentration (IC50) in experiment [2] was 3390 nM; in experiment [3], 3320 nM.

In the case of `CC1Cc2cc(cnc2N)-c2c(nn(C)c2C#N)CN(C)C(=O)c2ccc(F)cc21` (centres unmarked) [Example 61, 7-amino-12-fluoro-2,10,16-trimethyl-15-oxo-2,9,10,15,16,17-hexahydro-8,4-(metheno)pyrazolo[3,4-d][2,8]benzodiazacyclotetradecine-3-carbonitrile], the results for the inhibitory constant (Ki) in experiment [1] and in experiment [4] were 0.15 nM and 0.17 nM, respectively. For the same compound, the IC50 in experiment [2] turned out to be 4.82 nM; in experiment [3], 17.1 nM.

For `CC1Oc2nc(cnc2N)-c2c(C#N)nn3c2C(CC3)N(C)C(=O)c2ccc(F)cc21` [Example 75, (9R)-6-amino-11-fluoro-9,15-dimethyl-14-oxo-9,14,15,15a,16,17-hexahydro-7,3-(azeno)-8-oxa-1,5,15,17a-tetraazabenzo[11,12]cyclotetradeca[1,2,3-cd]pentalene-2-carbonitrile], the figures for the Ki in experiment [1] and in experiment [4] were 0.065 nM and 0.095 nM, respectively. Moreover, the IC50 turned out to be 0.902 nM in experiment [2] and 7.06 nM in experiment [3].

In the case of `C[C@H]1Oc2nc(cnc2N)-c2c(nn(C3COC3)c2C#N)CN(C)C(=O)c2ccc(F)cc21` [Example 93, (10R)-7-amino-12-fluoro-10,16-di methyl-2-(oxetan-3-yl)-15-oxo-10,15,16,17-tetrahydro-2H-8,4-(azeno) pyrazolo[4,3-h][2,5,11]benzoxadiazacyclotetradecine-3-carbonitrile], the inhibition constant (Ki) in experiment [1] was found to be 0.048 nM; in experiment [4], 0.3 nM. Besides, the values for the IC50 in experiment [2] and in experiment [3] were 3.23 nM and 31.7 nM, respectively.

As to `CCC1Oc2cc(cnc2N)-c2c(OC)nn(C)c2CN(C)C(=O)c2ccc(F)cc21` (single isomer, unassigned) [Example 23, 7-amino-10-ethyl-12-fluoro-3-methoxy-1,16-dimethyl-16,17-dihydro-1H-8,4-(metheno)pyrazolo[4,3-h][2,5,11]benzoxadiazacyclotetradecin-15(10H)-one], the inhibition constant (Ki) in experiment [1] was under 0.2 nM; in experiment [4] it was 0.29 nM. Also, the IC50 in experiment [2] came out at 0.77 nM; in experiment [3], 10.1 nM.

Take “7-amino-3-tert-butyl-1,10,16-trimethyl-16,17-dihydro-1H-8,4-(metheno)-pyrazolo[4,3-g]pyrido[2,3-l][1,4,10]oxadiazacyclotetradecin-15(10H)-one [Example 120]”: the Ki in experiment [1] came to 146 nM; in experiment [4], 821 nM. In addition, the IC50 in experiment [2] was 2110 nM; in experiment [3], over 10000 nM.

For the compound `COc1snc2c1-c1cnc(N)c(n1)O[C@H](C)c1cc(F)ccc1C(=O)N(C)C2` [Example 51, (10R)-7-amino-12-fluoro-3-methoxy-10,16-dimethyl-16,17-dihydro-8,4-(azeno)[1,2]thiazolo[4,3-h][2,5,11]benzoxadiazacyclotetradecin-15(10H)-one], the Ki in experiment [1] was 0.13 nM; in experiment [4] it was 0.28 nM. Besides, the IC50 is 0.95 nM in experiment [2] and 6.25 nM in experiment [3].

In the case of `CCc1noc2c1-c1cnc(N)c(n1)O[C@H](C)c1cc(F)ccc1C(=O)N(C)C2` [Example 47, (10R)-7-amino-3-ethyl-12-fluoro-10,16-dimethyl-16,17-dihydro-8,4-(azeno)[1,2]oxazolo[4,5-h][2,5,11]benzoxadiazacyclotetradecin-15(10H)-one], the Ki in experiment [1] was 0.29 nM; in experiment [4], 3.6 nM. Moreover, the half-inhibitory concentration (IC50) in experiment [3] worked out at 208 nM.

As for `CN1Cc2ccccc2-c2cnc(N)c(c2)OCc2cc(F)ccc2C1=O` [Example 7, 8-amino-3-fluoro-17-methyl-16,17-dihydro-7,11-(metheno)dibenzo[g,l]-[1,4,10]oxadiazacyclotetradecin-18(5H)-one], the half-maximal inhibitory concentration (IC50) in experiment [2] was found to be 155 nM; in experiment [3], 2680 nM. Also, the inhibition constant (Ki) in experiment [4] worked out at 14 nM.

In the case of `C[C@H]1Oc2cc(cnc2N)-c2c(nnn2C2CC2)CN(C)C(=O)c2ccc(F)cc21` [Example 137, (10R)-7-amino-3-cyclopropyl-12-fluoro-10,16-dimethyl-16,17-dihydro-3H-8,4-(metheno)[1,2,3]triazolo[4,5-h][2,5,11]benzoxadiazacyclotetradecin-15(10H)-one], the Ki in experiment [1] is 6.1 nM; in experiment [4], 72.4 nM. Further, the IC50 in experiment [3] is 2280 nM.

Take `COc1nn(C)c2c1-c1cnc(N)c(c1)OC(C)c1cccnc1C(=O)N(C)C2` (single isomer, unassigned) [Example 66, 7-amino-3-methoxy-1,10,16-trimethyl-16,17-dihydro-1H-8,4-(metheno)-pyrazolo[4,3-g]pyrido[2,3-l][1,4,10]oxadiazacyclotetradecin-15(10H)-one]: the inhibitory constant (Ki) in experiment [1] turned out to be 19.3 nM; in experiment [4], 122 nM.

In the case of `Cn1nc2c(c1C#N)-c1cnc(N)c(n1)OCc1cc(F)ccc1COC2` [Example 107, 7-amino-12-fluoro-2-methyl-2,10,15,17-tetrahydro-8,4-(azeno)pyrazolo[4,3-h][2,11,5]benzodioxazacyclotetradecine-3-carbonitrile], the results for the Ki in experiment [1] and in experiment [4] were 88.5 nM and 179 nM, respectively.

With `CC1c2nn(C)c(C#N)c2-c2cnc(N)c(n2)OCc2cc(F)ccc2C(=O)N1C` (single isomer, unassigned) [Example 80, 7-amino-12-fluoro-2,16,17-trimethyl-15-oxo-10,15,16,17-tetrahydro-2H-8,4-(azeno)pyrazolo[4,3-h][2,5,11]benzoxadiazacyclotetradecine-3-carbonitrile], the Ki in experiment [1] and in experiment [4] was over 3000 nM throughout.

The term Ki denotes a dissociation constant, usually derived from enzyme kinetics or from competition with a known ligand. What is called IC50 is the concentration that gives 50% inhibition.
